Results taken from US20160158200A1, “Combinations of Hepatitis C Virus Inhibitors” (priority 2013, published 2016).

The compounds below were run on HCV genotype-1a variant with glutamine 30 changed to glutamate in the NS5A protein. Conditions: test compound titrated with BMS-790052 fixed at 200 nM; genotype 1a Q30E replicon.
Assay type: cell-based
How it was run: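 Synergy was assessed by combining several fixed amounts of an NS5A-targeting compound with a titration of the second compound of interest.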

SMILES | Fold-Synergistic 1a (Q30E) [fold]
CC(C)CC(=O)NC1(c2ncc(-c3ccc(-c4ccc(-c5cnc(C6(NC(=O)CC(C)C)Cc7ccccc7C6)[nH]5)cc4)cc3)[nH]2)Cc2ccccc2C1.O=C(O)C(F)(F)F.O=C(O)C(F)(F)F [Compound N-19] | <10
COC(C)(COCc1ccccc1)C(=O)N[C@H](c1nc(-c2ccc(-c3ccc(-c4c[nH]c([C@@H](NC(=O)C(C)(COCc5ccccc5)OC)C(C)(C)C)n4)cc3)cc2)c[nH]1)C(C)(C)C.O=C(O)C(F)(F)F.O=C(O)C(F)(F)F (single isomer, unassigned) [Compound W-232] | >100
COC(=O)N1C[C@H](F)C[C@@]1(C)C(=O)N[C@H](c1nc(-c2ccc(-c3ccc(-c4c[nH]c([C@@H](NC(=O)[C@]5(C)C[C@@H](F)CN5C(=O)OC)C(C)(C)C)n4)cc3)cc2)c[nH]1)C(C)(C)C [Compound W-210] | >100
CN(C)S(=O)(=O)N[C@H](c1nc(-c2ccc(-c3ccc(-c4c[nH]c([C@@H](NS(=O)(=O)N(C)C)C(C)(C)C)n4)cc3)cc2)c[nH]1)C(C)(C)C [Compound L-116] | >100
CC(C)[C@H](NC(=O)C(=O)C1(O)CCC(F)(F)CC1)c1ncc(-c2ccc(-c3ccc(-c4cnc([C@@H](NC(=O)C(=O)C5(O)CCC(F)(F)CC5)C(C)C)[nH]4)cc3)cc2)[nH]1 [Compound P-125] | >100
CC(C)(C)C(NC(=O)CC1CCCO1)c1nc(-c2ccc(-c3ccc(-c4c[nH]c(C(NC(=O)CC5CCCO5)C(C)(C)C)n4)cc3)cc2)c[nH]1.O=C(O)C(F)(F)F.O=C(O)C(F)(F)F (mixture of isomers) [Compound L-70] | >100
COC(CO)(CC(C)C)C(=O)N[C@H](c1nc(-c2ccc(-c3ccc(-c4c[nH]c([C@@H](NC(=O)C(CO)(CC(C)C)OC)C(C)(C)C)n4)cc3)cc2)c[nH]1)C(C)(C)C (single isomer, unassigned) [Compound N-160A] | >100
CC(C)(C)C(=O)N[C@H](c1nc2ccc(-c3ccc(-c4ccc5nc([C@@H](NC(=O)C(C)(C)C)C(C)(C)C)[nH]c5c4)cc3)cc2[nH]1)C(C)(C)C.O=C(O)C(F)(F)F [Compound B33] | >100
CC(C)(C)C(=O)N[C@H](c1ncc(-c2ccc3cc4cc(-c5cnc([C@@H](NC(=O)C(C)(C)C)C(C)(C)C)[nH]5)ccc4cc3c2)[nH]1)C(C)(C)C [Compound B27] | >100
CC(C)(C)[C@H](NC(=O)CS(C)(=O)=O)c1nc(-c2ccc(-c3ccc(-c4cnc([C@@H](NC(=O)CS(C)(=O)=O)C(C)(C)C)[nH]4)cc3)cc2)c[nH]1 [Compound B-181] | >10
CC(C)[C@H](NC(=O)c1nccn1C)c1ncc(-c2ccc(-c3ccc(-c4cnc([C@@H](NC(=O)c5nccn5C)C(C)C)[nH]4)cc3)cc2)[nH]1 [Compound S-105] | <10
CC(C)[C@H](NC(=O)c1cc2ccccc2s1)c1ncc(-c2ccc(-c3ccc(-c4cnc([C@@H](NC(=O)c5cc6ccccc6s5)C(C)C)[nH]4)cc3)cc2)[nH]1 [Compound P-98] | >100
[2H]C([2H])([2H])C(=O)NC1(C(=O)N[C@H](c2nc(-c3ccc(-c4ccc(-c5c[nH]c([C@@H](NC(=O)C6(NC(=O)C([2H])([2H])[2H])CCCCC6)C(C)(C)C)n5)cc4)cc3)c[nH]2)C(C)(C)C)CCCCC1 [Compound W-272] | >100
CC(C)(C)C(NC(=O)C(C)(C)C1CCCCO1)c1nc(-c2ccc(-c3ccc(-c4c[nH]c(C(NC(=O)C(C)(C)C5CCCCO5)C(C)(C)C)n4)cc3)cc2)c[nH]1 (mixture of isomers) [Compound P-153] | >100
CC(C)(C)[C@H](NC(=O)C1(c2ccc(Cl)cc2)CC1)c1nc(-c2ccc(-c3ccc(-c4c[nH]c([C@@H](NC(=O)C5(c6ccc(Cl)cc6)CC5)C(C)(C)C)n4)cc3)cc2)c[nH]1 [Compound N-56] | >100
CC(C)[C@H](NC(=O)C(C)(C)C(O)C1CC(F)(F)C1)c1nc(-c2ccc(-c3ccc(-c4c[nH]c([C@@H](NC(=O)C(C)(C)C(O)C5CC(F)(F)C5)C(C)C)n4)cc3)cc2)c[nH]1 (single isomer, unassigned) [Compound N-145B] | >100
CC(C)(C)C(=O)N[C@H](c1ncc(-c2ccc(-c3ccc(-c4cnc([C@@H](NC(=O)C(C)(C)C)C5(C)CC5)[nH]4)cc3)cc2)[nH]1)C1(C)CC1 [Compound Y-35] | >100
CC(C)(C)[C@H](NC(=O)C1CC2CCC(C1)C2(F)F)c1nc(-c2ccc(-c3ccc(-c4c[nH]c([C@@H](NC(=O)C5CC6CCC(C5)C6(F)F)C(C)(C)C)n4)cc3)cc2)c[nH]1 (stereo partly shown) [Compound P-45] | >100
CC(C)(C)OC(=O)N1CCCCC1(C)C(=O)N[C@H](c1nc(-c2ccc(-c3ccc(-c4c[nH]c([C@@H](NC(=O)C5(C)CCCCN5C(=O)OC(C)(C)C)C(C)(C)C)n4)cc3)cc2)c[nH]1)C(C)(C)C (single isomer, unassigned) [Compound L-46a] | >100
CC(C)(C)[C@H](NC(=O)C1CCC(F)(F)CC1)c1nc(-c2ccc(-c3ccc(-c4c[nH]c([C@@H](NC(=O)C5CCC(F)(F)CC5)C(C)(C)C)n4)cc3)cc2)c[nH]1 [Compound N-47] | >100
CC(C)[C@H](NC(=O)C(C)(C)F)c1nc(-c2ccc(-c3ccc(-c4c[nH]c([C@@H](NC(=O)C(C)(C)F)C(C)C)n4)cc3F)cc2)c[nH]1.O=C(O)C(F)(F)F [Compound N-97] | >100
CC(C)[C@H](NC(=O)C1(C)COC1)c1ncc(-c2ccc(-c3ccc(-c4cnc([C@@H](NC(=O)C5(C)COC5)C(C)C)[nH]4)cc3)cc2)[nH]1 [Compound P-84] | >100
CC(C)(C)C(NC(=O)C1(O)CCCC1)c1nc(-c2ccc(-c3ccc(-c4c[nH]c(C(NC(=O)C5(O)CCCC5)C(C)(C)C)n4)cc3)cc2)c[nH]1 [Compound L-73] | >100
CC(C)[C@H](NC(=O)c1ccc(F)cc1F)c1ncc(-c2ccc(-c3ccc(-c4cnc([C@@H](NC(=O)c5ccc(F)cc5F)C(C)C)[nH]4)cc3)cc2)[nH]1 [Compound S-89] | >100
CC1(C)C[C@@H](C(=O)N[C@H](c2nc(-c3ccc(-c4ccc(-c5c[nH]c([C@@H](NC(=O)[C@@H]6CC(C)(C)CN6C(=O)OC(C)(C)C)C(C)(C)C)n5)cc4)cc3)c[nH]2)C(C)(C)C)N(C(=O)OC(C)(C)C)C1 [Compound W-93] | >100
CC(C)[C@H](NC(=O)c1cc(Cl)ccc1Cl)c1ncc(-c2ccc(-c3ccc(-c4cnc([C@@H](NC(=O)c5cc(Cl)ccc5Cl)C(C)C)[nH]4)cc3)cc2)[nH]1 [Compound S-67] | >100
CC(C)(C)OC(=O)N1CCOCC1C(=O)NC(c1nc(-c2ccc(-c3ccc(-c4c[nH]c(C(NC(=O)C5COCCN5C(=O)OC(C)(C)C)C(C)(C)C)n4)cc3)cc2)c[nH]1)C(C)(C)C [Compound L-61] | >100
CC(C)(Oc1ccccc1F)C(=O)N[C@H](c1nc(-c2ccc(-c3ccc(-c4c[nH]c([C@@H](NC(=O)C(C)(C)Oc5ccccc5F)C(C)(C)C)n4)cc3)cc2)c[nH]1)C(C)(C)C [Compound Y-4] | >100
